Source: patent US20260209219A1, “SUBSTITUTED TETRAHYDROPYRROLO-PYRIDINONE COMPOUNDS AND THEIR USE IN TREATING MEDICAL CONDITIONS” (Karuna Therapeutics, Inc., priority 2022, published 2026)

Assays:
[1] = target: T1, hM4 receptors (Homo sapiens, UniProt P08173); assay: Human M4 PAM pERK assay; format: cell-based; conditions: CHO cells expressing hM4; with EC20 of acetylcholine (10 nM final)
T1 construct: expressed in transfected cells; host or cells: CHO cells
T1 sequence (P08173 1-479): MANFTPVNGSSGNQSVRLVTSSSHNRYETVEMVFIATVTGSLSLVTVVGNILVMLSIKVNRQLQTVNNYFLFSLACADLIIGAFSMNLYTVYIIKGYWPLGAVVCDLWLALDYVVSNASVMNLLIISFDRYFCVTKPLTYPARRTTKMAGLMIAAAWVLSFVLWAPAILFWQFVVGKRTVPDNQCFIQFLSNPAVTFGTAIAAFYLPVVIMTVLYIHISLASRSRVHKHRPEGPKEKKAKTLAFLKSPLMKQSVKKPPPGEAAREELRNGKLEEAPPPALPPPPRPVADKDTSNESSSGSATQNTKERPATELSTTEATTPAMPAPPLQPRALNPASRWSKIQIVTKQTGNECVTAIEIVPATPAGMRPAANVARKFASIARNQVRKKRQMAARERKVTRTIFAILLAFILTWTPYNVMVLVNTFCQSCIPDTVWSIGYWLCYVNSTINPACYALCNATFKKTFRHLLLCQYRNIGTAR
Procedure: Chinese hamster ovary (CHO) cells expressing either hM4 or rM4 receptors were frozen in assay ready vials (5×10^6 cells/vial) after bulking-up in culture. The day before an assay, vial(s) were thawed and cells seeded in 384 well white proxiplates at 1000/well for hM4 cells and at 2000/well for rM4 cells, in 10 μL of growth media (Hams/F12 with glutamax and 10% FCS) and incubated overnight at 37° C./5% CO2.
On the following morning, the growth media was removed by ‘flicking out’ over a bin, patting the inverted plate onto tissue, and then replacing with 10 μL of wash media (Hams/F12 with glutamax and 8 mM HEPES, NB: serum free). Then, the wash media was removed in the same way and replaced with 8 μL/well of the serum free media. Plates were then re-incubated for a further 4 hours at 37° C./5% CO2.
Compounds for testing were solubilized to 10 mM in DMSO and compound addition plates, consisting of ten-point concentration response curves (CRC) in duplicate points (10 μM top concentration, ½ log dilution series), were prepared by acoustic dispensing and the compound management group.
After the 4-hour incubation in serum free media, a 4 μL aliquot of the 3× compound solution containing an EC20 of acetylcholine (10 nM final concentration) was added to the cell plate using a 384 well plate to plate transfer. Then, the plate lid was replaced, and the cells incubated for 5 mins at 37° C./5% CO2. Following this final incubation, all cellular processes were stopped by the addition of 4 μL/well of lysis and blocking buffer and plates were incubated for 30 minutes at RT on an orbital shaker (gentle setting). Then, a final addition of 4 μL/well of antibody detection mix, containing both the Europium-Cryptate (donor) and d2 (acceptor) tagged detection components, was added followed by a further 2-hour incubation at RT, and then the plate was read using a TR-FRET (time resolved fluorescence resonance energy transfer) based protocol.

[2] = system: Sprague Dawley rats; assay: Amphetamine-evoked hyperlocomotion in rats (open field); format: in vivo, rat; conditions: adult male Sprague Dawley rats, 0.5 mg/kg amphetamine s.c., distance traveled over 60 min after AMP
Procedure: Animals: Adult male, Sprague Dawley rats (Envigo, Indianapolis, IN, USA) were housed in a colony maintained at 23° C. with 12 hour light/dark cycles (lights on at 0600 hour). All animals weighed 290-330 g at the beginning of the study and were equally divided into 5 groups (n=8 per group) and received one of the treatment conditions listed below. Animal protocols were approved by an Animal Care and Use Committee.
Behavioral Procedures: Studies were conducted in MedAssociates open field chambers (27.3 cm×27.3 cm×20.3 cm, MedAssociates, St. Albans, VT) in which movement was automatically tracked and recorded by 16 beam arrays. Administration pretreatment of the test article was determined to coincide with Tmax at the time of the amphetamine-evoked session with optimal route of administration. All groups were subcutaneously treated with 0.5 mg/kg amphetamine (AMP). […] Locomotor data (distance traveled) was recorded as 5-minute bins throughout the 90-minute session. […]
Statistical Analysis: Spontaneous locomotion (prior to AMP administration) was calculated as the total distance traveled during the first 30 minutes of the experimental session. AMP-evoked responses were calculated as the total distance traveled during the last 60 minutes of the experimental session which commenced immediately after AMP administration. Locomotor data were analyzed by a one-way ANOVA. […]

EC50 [1] [nM]	Structure (SMILES)	Dose Amount of Compound at which rats displayed a reduction in amphetamine-evoked hyperlocomotion activity [2] [mg/kg]
< 100	Cc1c2c(n(C)c(=O)c1F)CN(C(=O)CC1CC1c1ccc(C(F)(F)F)cc1)C2 (stereo not shown) [Compound I-26]	10
100 to 500	Cc1cc(=O)n(C)c2c1CN(C(=O)CC1CC1c1ccc(C(F)(F)F)cc1)C2 (single isomer, unassigned) [Compound I-7]	32
